Source: patent EP4501917A1, “3,4-DIHYDROQUINOXALINE-2-CARBOXIMIDE DERIVATIVE COMPOUND AND PHARMACEUTICAL COMPOSITION COMPRISING SAME FOR PREVENTING OR TREATING CANCER DISEASE” (Daegu-Gyeongbuk Medical Innovation Foundation, priority 2022, dated 2023)

Key:
[1] = molecular target: T1, HDAC8 (Homo sapiens, UniProt Q9BY41); assay: HDAC8 inhibitory activity analysis (in vitro), RFU analysis, HDAC Fluorogenic assay kit; format: biochemical; details: for RFU (%): compound final concentration 10 µM, HDAC substrate 2A 20 µM, positive control (1% DMSO) set to 100, lower = more inhibition; for inhibitory activity against HDAC8: result in words, summary of Table 2, 10 µM
T1 construct: purchased BPS bioscience
T1 sequence (Q9BY41 1-377): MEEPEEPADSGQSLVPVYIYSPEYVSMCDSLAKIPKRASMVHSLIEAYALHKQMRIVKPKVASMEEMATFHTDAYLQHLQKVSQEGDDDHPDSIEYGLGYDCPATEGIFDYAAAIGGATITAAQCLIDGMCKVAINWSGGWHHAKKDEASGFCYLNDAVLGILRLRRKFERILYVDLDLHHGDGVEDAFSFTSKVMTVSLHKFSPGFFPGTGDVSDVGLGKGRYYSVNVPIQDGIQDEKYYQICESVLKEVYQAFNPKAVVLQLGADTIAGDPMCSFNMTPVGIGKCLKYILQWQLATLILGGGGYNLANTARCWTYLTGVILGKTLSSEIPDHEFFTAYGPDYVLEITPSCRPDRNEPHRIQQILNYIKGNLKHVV
Protocol: The compound of the Example was diluted to 1 mM (1% DMSO concentration) using DMSO to obtain a final concentration of 10 µM, and prepared by diluting 1/10 with assay buffer. In a 96-well black round-bottom plate, 5 µL of the diluted compound of the Example, 5 µL of the diluted HDAC substrate 2A, 5 µL of BSA (1 mg/mL), 5 µL of the HDAC8 enzyme diluted to an appropriate concentration, and 30 µL of assay buffer were added, and the enzyme reaction was performed at 37°C for 30 minutes. […] Afterwards, 50 µL of 2X HDAC developer was added to each well. After reacting for 15 minutes at room temperature, the fluorescence values at excitation wavelengths of 350-380 nm and emission wavelengths of 440-460 nm were measured using a microplate reader (Synergy Neo).

[2] = test system: Liver cancer cells Huh-7; assay: Liver cancer cell growth inhibition, CellTiter-Glo Luminescent Cell Viability Assay; format: cell-based; details: Huh-7 cells, various concentrations, day 1, FIG. 6; result in words
Protocol: In addition, an analysis of liver cancer growth inhibitory activity was performed. Liver cancer cells Huh-7 cells were dispensed in a 96-well plate at 1 × 10^4 cells/ml, and after 20 hours, PCI34051, Example 27, and Example 35 were added at various concentrations, and cultured for 24 and 48 hours at 37°C in a 5% CO2 atmosphere. After culturing, 100 µl CellTiter-Glo Luminescent Cell Viability Assay reagent was added and the luminescence signal was measured after 0.5-1 hour. The luminescence signal was measured using IVIS [PerkinElmer, (Waltham, USA)].

SMILES | RFU (%) [1] | inhibitory activity against HDAC8 [1] | cell viability [2]
Cc1cc2nc(C(=O)NCc3ccc4[nH]cnc4c3)c(=O)n(C[C@H](O)[C@H](O)[C@H](O)CO)c2cc1C [Example 34, N-((1H-benzo[d]imidazol-5-yl)methyl)-6,7-dimethyl-3-oxo-4-((2S,3S,4R)-2,3,4,5-tetrahydroxypentyl)-3,4-dihydroquinoxaline-2-carboxamide] | 34.05% | inhibitory activity similar to TSA or SAHA | –
Cc1cc2nc(C(=O)Nc3nnc(-c4ccc(Br)cc4)s3)c(=O)n(C[C@H](O)[C@H](O)[C@H](O)CO)c2cc1C [Example 11, N-(5-(4-bromophenyl)-1,3,4-thiadiazol-2-yl)-6,7-dimethyl-3-oxo-4-((2S,3S,4R)-2,3,4,5-tetrahydroxypentyl)-3,4-dihydroquinoxaline-2-carboxamide] | 63.24% | – | –
Cc1cc2nc(C(=O)Nc3ccc(C(=O)NO)cc3)c(=O)n(C[C@H](O)[C@H](O)[C@H](O)CO)c2cc1C [Example 48, N-(4-(hydroxycarbamoyl)phenyl)-6,7-dimethyl-3-oxo-4-((2S,3S,4R)-2,3,4,5-tetrahydroxypentyl)-3,4-dihydroquinoxaline-2-carboxamide] | 10.48% | inhibitory activity similar to TSA or SAHA | –
Cc1cc2nc(C(=O)NCc3ccc(CC(=O)NO)cc3)c(=O)n(C[C@H](O)[C@H](O)[C@H](O)CO)c2cc1C [Example 49, N-(4-(2-(hydroxyamino)-2-oxoethyl)benzyl)-6,7-dimethyl-3-oxo-4-((2S,3S,4R)-2,3,4,5-tetrahydroxypentyl)-3,4-dihydroquinoxaline-2-carboxamide] | 35.15% | inhibitory activity similar to TSA or SAHA | –
Cc1cc2nc(C(=O)NCc3cc(Cl)cc(Cl)c3)c(=O)n(C[C@H](O)[C@H](O)[C@H](O)CO)c2cc1C [Example 7, N-(3,5-dichlorobenzyl)-6,7-dimethyl-3-oxo-4-((2S,3S,4R)-2,3,4,5-tetrahydroxypentyl)-3,4-dihydroquinoxaline-2-carboxamide] | 54.79% | – | –
Cc1cc2nc(C(=O)NCc3ccc(C(=O)NO)cc3)c(=O)n(C[C@H](O)[C@H](O)[C@H](O)CO)c2cc1C [Example 47, N-(4-(hydroxycarbamoyl)benzyl)-6,7-dimethyl-3-oxo-4-((2S,3S,4R)-2,3,4,5-tetrahydroxypentyl)-3,4-dihydroquinoxaline-2-carboxamide] | 53.58% | – | –
Cc1cc2nc(C(=O)NC3CCC(C(=O)NO)C3)c(=O)n(C[C@H](O)[C@H](O)[C@H](O)CO)c2cc1C (stereo partly drawn) [Example 52, N-(3-(hydroxycarbamoyl)cyclopentyl)-6,7-dimethyl-3-oxo-4-((2S,3S,4R)-2,3,4,5-tetrahydroxypentyl)-3,4-dihydroquinoxaline-2-carboxamide] | 41.96% | – | –
COC(=O)C1CCC(NC(=O)c2nc3cc(C)c(C)cc3n(C[C@H](O)[C@H](O)[C@H](O)CO)c2=O)C1 (stereo partly drawn) [Example 33, methyl 3-(6,7-dimethyl-3-oxo-4-((2S,3S,4R)-2,3,4,5-tetrahydroxypentyl)-3,4-dihydroquinoxaline-2-carboxamido)cyclopentane-1-carboxylate] | 69.48% | – | –
Cc1cc2nc(C(=O)NCc3cccc(C(=O)NO)c3)c(=O)n(C[C@H](O)[C@H](O)[C@H](O)CO)c2cc1C [Example 50, N-(3-(hydroxycarbamoyl)benzyl)-6,7-dimethyl-3-oxo-4-((2S,3S,4R)-2,3,4,5-tetrahydroxypentyl)-3,4-dihydroquinoxaline-2-carboxamide] | 51.23% | – | –
Cc1cc2nc(C(=O)Nc3cc(-c4ccc(Br)cc4)n[nH]3)c(=O)n(C[C@H](O)[C@H](O)[C@H](O)CO)c2cc1C [Example 12, N-(3-(4-bromophenyl)-1H-pyrazol-5-yl)-6,7-dimethyl-3-oxo-4-((2S,3S,4R)-2,3,4,5-tetrahydroxypentyl)-3,4-dihydroquinoxaline-2-carboxamide] | 58.97% | – | –
Cc1cc2nc(C(=O)NCc3nc4ccccc4[nH]3)c(=O)n(C[C@H](O)[C@H](O)[C@H](O)CO)c2cc1C [Example 24, N-((1H-benzo[d]imidazol-2-yl)methyl)-6,7-dimethyl-3-oxo-4-((2S,3S,4R)-2,3,4,5-tetrahydroxypentyl)-3,4-dihydroquinoxaline-2-carboxamide] | 42.03% | – | –
Cc1cc2nc(C(=O)NCCc3ccc(Cl)cc3Cl)c(=O)n(C[C@H](O)[C@H](O)[C@H](O)CO)c2cc1C [Example 9, N-(2,4-dichlorophenethyl)-6,7-dimethyl-3-oxo-4-((2S,3S,4R)-2,3,4,5-tetrahydroxypentyl)-3,4-dihydroquinoxaline-2-carboxamide] | 66.28% | – | –
Cc1cc2nc(C(=O)NCc3ccc(F)cc3)c(=O)n(C[C@H](O)[C@H](O)[C@H](O)CO)c2cc1C [Example 4, N-(4-fluorobenzyl)-6,7-dimethyl-3-oxo-4-((2S,3S,4R)-2,3,4,5-tetrahydroxypentyl)-3,4-dihydroquinoxaline-2-carboxamide] | 85.71% | – | –
Cc1cc2nc(C(=O)NCc3ccc(Cl)c(Cl)c3)c(=O)n(C[C@H](O)[C@H](O)[C@H](O)CO)c2cc1C [Example 8, N-(3,4-dichlorobenzyl)-6,7-dimethyl-3-oxo-4-((2S,3S,4R)-2,3,4,5-tetrahydroxypentyl)-3,4-dihydroquinoxaline-2-carboxamide] | 85.37% | – | –
COc1ccc(Cn2ccc3ccc(C(=O)NO)cc32)cc1 [PCI-34051, N-hydroxy-1-(4-methoxybenzyl)-1H-indole-6-carboxamide, reference compound] | 1.86% | – | concentration-dependent inhibition of cancer cell viability
O=C(CCCCCCC(=O)Nc1ccccc1)NO [SAHA, suberoylanilide hydroxamic acid, reference compound] | 38.57% | – | –
Cc1cc2nc(C(=O)Nc3cc(-c4ccc(Br)cc4)no3)c(=O)n(C[C@H](O)[C@H](O)[C@H](O)CO)c2cc1C [Example 10, N-(3-(4-bromophenyl)isoxazol-5-yl)-6,7-dimethyl-3-oxo-4-((2S,3S,4R)-2,3,4,5-tetrahydroxypentyl)-3,4-dihydroquinoxaline-2-carboxamide] | 16.61% | inhibitory activity similar to TSA or SAHA | –
Cc1cc2nc(C(=O)Nc3cc(C(=O)NO)ccc3C)c(=O)n(C[C@H](O)[C@H](O)[C@H](O)CO)c2cc1C [Example 51, N-(5-(hydroxycarbamoyl)-2-methylphenyl)-6,7-dimethyl-3-oxo-4-((2S,3S,4R)-2,3,4,5-tetrahydroxypentyl)-3,4-dihydroquinoxaline-2-carboxamide] | 5.81% | inhibitory activity similar to TSA or SAHA | –
